The record followed here is publication PMC12663294 (Nature Communications, 2025).

Like-named read-outs stand apart in the source and are kept apart here.

Series [1] concerns the target T1, recombinant An. coluzzii Coeae6g (Anopheles coluzzii, UniProt A0A6E8VQK1).
T1 sequence (A0A6E8VQK1 1-582): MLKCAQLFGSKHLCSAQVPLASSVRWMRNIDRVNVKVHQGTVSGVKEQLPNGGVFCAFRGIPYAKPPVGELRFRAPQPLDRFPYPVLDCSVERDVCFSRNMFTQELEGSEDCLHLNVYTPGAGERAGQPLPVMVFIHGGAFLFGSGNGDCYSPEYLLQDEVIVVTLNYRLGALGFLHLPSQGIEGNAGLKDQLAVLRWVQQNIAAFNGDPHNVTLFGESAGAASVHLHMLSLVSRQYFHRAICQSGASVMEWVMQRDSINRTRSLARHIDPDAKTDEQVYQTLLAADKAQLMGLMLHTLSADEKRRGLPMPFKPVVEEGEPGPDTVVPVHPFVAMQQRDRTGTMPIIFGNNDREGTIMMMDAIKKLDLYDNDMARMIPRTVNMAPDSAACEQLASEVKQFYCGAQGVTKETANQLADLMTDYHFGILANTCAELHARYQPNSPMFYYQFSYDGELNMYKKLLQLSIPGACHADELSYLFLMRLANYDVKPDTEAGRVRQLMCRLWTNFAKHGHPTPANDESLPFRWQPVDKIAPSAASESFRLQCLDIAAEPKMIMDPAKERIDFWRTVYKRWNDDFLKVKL
Kind of series: Insecticide inhibition of α-NA hydrolysis by recombinant Coeae6g. Format: biochemical. To be noted: for IC50 (μΜ) (95% CI) of α-NA hydrolysis: 10 min pre-incubation, α-NA at Km, Sf9 homogenate expressing Coeae6g.

For series [2], the system named is whole extracts of An. gambiae Coeae6g overexpressing mosquitoes. Kind of series: Total esterase activity of whole mosquito extracts towards model substrates. Format: biochemical, Anopheles gambiae.
Series [3] has as its target T1, recombinant An. coluzzii Coeae6g. Format: biochemical. To be noted: for fold increased esterase activity compared to YFP-expressing and uninfected Sf9 cells: resuspended cell pellets expressing Coeae6g; for Km: read-out: Km (95% CI); for Km / Vmax (95% CI): substrate of recombinant Coeae6g (Sf9-Coeae6g).
The subject of series [4] is GAL4/UAS-AngCoeae6g mosquitoes. The experiment in a line: WHO tube/adult bioassays. On the set-up: species or system Anopheles gambiae. To be noted: in vivo.
Series [5] deals with GAL4/UAS-AncCoeae6g mosquitoes. Kind of series: WHO tube/adult bioassays.
For series [6], the system named is active serine hydrolases (FP-reactive bands, ~62–70 kDa) in An. gambiae homogenates. Format: biochemical, Anopheles gambiae (Kisumu strain).
For series [7], the system named is A11 parental line mosquitoes. Kind of series: WHO tube/adult bioassays. Format: in vivo, Anopheles gambiae. To be noted: exposure for 10 and 15 min, three replicates.
Series [8] relates to GAL4/UAS-AncCoeae6g mosquitoes. To be noted: in vivo.

For the molecule `CNC(=O)Oc1cccc2c1OC(C)(C)O2` [Bendiocarb, bendiocarb], the IC50 in series [1] is 7.27 µM.
On to `CC(=O)Oc1ccc([N+](=O)[O-])cc1` [p-NPA, p-nitrophenyl acetate], for which the “fold higher total carboxylesterase activity than control parental mosquitoes” value in series [2] amounted to 2.9 fold. Moreover, the “fold increased esterase activity compared to YFP-expressing and uninfected Sf9 cells” value (from here on “fold increased esterase activity”) in series [3] is 8-12 fold.
The Km is the substrate concentration at which the rate is half of its maximum. Turning to `CC(=O)Oc1cccc2ccccc12` [α-NA, α-naphthyl acetate], in series [3], the Km was determined as 68.5 µM; the “fold increased esterase activity” value is given as 8-12 fold; the “Vmax (95% CI)” value is 307.7 nmol min^−1 mg total protein^−1.
Molecule `CCN(CC)c1nc(C)cc(OP(=S)(OC)OC)n1` [PM, pirimiphos-methyl] showed a Mortality rate in series [4] of 67%. Besides, in series [5] (in vivo), the Mortality rate was determined as 79%. Further, in series [6], the “T-FP labelling of distinct ~90 kDa band” value was “not affected” and the “T-FP labelling of prominent bands at ~62–70 kDa” value was “markedly reduced”. The IC50 in series [6] (read-out: IC₅₀ (FP-TAMRA labelled ~62–70 kDa band intensity)) is approximately 10.6 µM. In series [1], the “IC50 (μΜ) (95% CI) of α-NA hydrolysis” value is “No inhibition”.
For the molecule `CCOC(=O)CC(SP(=S)(OC)OC)C(=O)OCC` (centres unmarked) [Malathion, malathion], in series [1], the IC50 was more than 45 µM and the “IC50 (μΜ) (95% CI) of α-NA hydrolysis” value is “No inhibition”.
On to `CC1(C)[C@H](C(=O)O[C@H](C#N)c2cccc(Oc3ccccc3)c2)[C@@H]1C=C(Br)Br` [Deltamethrin, deltamethrin], for which, in series [5] (exposure for 10 and 15 min, three replicates), the Mortality is reported as 100%. Also, the Mortality in series [7] turned out to be 100%. Moreover, in series [1], the IC50 was more than 450 µM and the “IC50 (μΜ) (95% CI) of α-NA hydrolysis” value is reported as “no inhibition”.
As to `CC(=O)Oc1ccc2ccccc2c1` [β-NA, β-naphthyl acetate], in series [2], the “fold higher total carboxylesterase activity than control parental mosquitoes” value is 2.3 fold. In addition, in series [3], the Km was determined as 369 µM; the “fold increased esterase activity” value was 8-12 fold; the “Vmax (95% CI)” value was 253.0 nmol min^−1 mg total protein^−1.
On to `CNC(=O)Oc1ccccc1OC(C)C` [Propoxur, propoxur], for which, in series [1], the IC50 was 3.52 µM.
Regarding `CC1(C)C(C=C(Cl)Cl)C1C(=O)OCc1cccc(Oc2ccccc2)c1` (centres unmarked) [Permethrin, permethrin], the Mortality rate in series [8] is listed as 81.8%. The IC50 in series [1] stood at 130 µM.
Turning to `CCOC(=O)CC(SP(=O)(OC)OC)C(=O)OCC` (centres unmarked) [Malaoxon, malaoxon], the IC50 in series [1] is 0.24 µM.
